The source of these data is PubChem BioAssay (NCI).

Each structure is given as a SMILES string.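 Tested at 5 concentrations; 48 h exposure; 96-well plates; endpoints linearly interpolated, else capped at highest concentration. The concentration for 50% growth inhibition is given as GI50. TGI marks complete inhibition of growth.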

Among the test systems are UACC-257 melanoma; NCI-H460 lung; HS 578T breast; UO-31 renal; KM12 colon; SK-OV-3 ovarian; MDA-MB-231 breast; SW-620 colon; DU-145 prostate; TK-10 renal.
What all share (test): inhibition of tumour cell growth, NCI panel, 48 h

Consider `CC(=O)NC1CONC1=O` (stereo not given), for which the TGI in the experiment on UACC-257 melanoma, with NCI-H460 lung, with HS 578T breast, in the experiment with UO-31 renal, in the experiment on KM12 colon and with SK-OV-3 ovarian was > 100 µM in each case. Besides, the TGI in the experiment with MDA-MB-231 breast, in the experiment with SW-620 colon, in the experiment on DU-145 prostate and in the experiment on TK-10 renal was > 100 µM each time.

With `CC1(C)N=C(N)N=C(N)N1c1cccc(OCCOc2cccc([N+](=O)[O-])c2)c1`, the GI50 in the experiment with UACC-257 melanoma is 4.32 µM; in the experiment on NCI-H460 lung it was 0.541 µM; in the experiment on HS 578T breast, 33.5 µM; in the experiment on UO-31 renal it was > 100 µM; with KM12 colon it was 1.37 µM; in the experiment on SK-OV-3 ovarian, > 56.4 µM. Moreover, the GI50 in the experiment with MDA-MB-231 breast is 10.2 µM; with SW-620 colon, 1.93 µM; in the experiment on DU-145 prostate, 4.38 µM; in the experiment on TK-10 renal, 66 µM. In addition, the TGI with UACC-257 melanoma, in the experiment with NCI-H460 lung, with HS 578T breast, in the experiment on UO-31 renal, in the experiment with KM12 colon and in the experiment on SK-OV-3 ovarian was > 100 µM each time. Besides, the TGI in the experiment with MDA-MB-231 breast, in the experiment on SW-620 colon, with DU-145 prostate and in the experiment with TK-10 renal was > 100 µM in each case.

Turning to `C=C(C)[C@@H]1CC[C@]2(C)[C@H](CC[C@@H]3[C@@H]([C@@](C)(O)CCC=C(C)C)CC[C@]32C)[C@@]1(C)CCC(=O)O`, the GI50 in the experiment on UACC-257 melanoma was 23.8 µM; in the experiment on NCI-H460 lung, 31.9 µM; in the experiment on HS 578T breast, 24 µM; with UO-31 renal it was 15.7 µM; in the experiment with KM12 colon it was 16.3 µM; with SK-OV-3 ovarian it was 32.9 µM. In addition, the GI50 was 16.6 µM in the experiment on MDA-MB-231 breast, 28.5 µM in the experiment with SW-620 colon, 16.7 µM in the experiment on DU-145 prostate and 40.6 µM in the experiment on TK-10 renal. In addition, the TGI in the experiment with UACC-257 melanoma was 96.4 µM; in the experiment with NCI-H460 lung it was > 100 µM; in the experiment on HS 578T breast, 86.9 µM; with UO-31 renal, 29.4 µM; in the experiment with KM12 colon, 32.4 µM; with SK-OV-3 ovarian, > 100 µM. Further, the TGI with MDA-MB-231 breast is 33.1 µM; in the experiment with SW-620 colon, > 100 µM; in the experiment on DU-145 prostate, 32.4 µM; in the experiment on TK-10 renal, > 100 µM.
